Experimental data from PMC3524753, “SU11652 Inhibits tyrosine kinase activity of FLT3 and growth of MV-4-11 cells” (Journal of Hematology & Oncology, 2012).
Positions count from the first letter of the chain named.

Tests used:
Assay in all cases: in vitro kinase assay with GST-FLT3S substrate, anti-phosphotyrosine immunoblot
Assay type in all cases: biochemical
[1] = molecular target: T1, FLT3 (FMS-like tyrosine kinase 3) (Homo sapiens, UniProt P36888)
T1 construct: catalytic domain of wild type FLT3
T1 sequence (P36888 564-993 limits assumed): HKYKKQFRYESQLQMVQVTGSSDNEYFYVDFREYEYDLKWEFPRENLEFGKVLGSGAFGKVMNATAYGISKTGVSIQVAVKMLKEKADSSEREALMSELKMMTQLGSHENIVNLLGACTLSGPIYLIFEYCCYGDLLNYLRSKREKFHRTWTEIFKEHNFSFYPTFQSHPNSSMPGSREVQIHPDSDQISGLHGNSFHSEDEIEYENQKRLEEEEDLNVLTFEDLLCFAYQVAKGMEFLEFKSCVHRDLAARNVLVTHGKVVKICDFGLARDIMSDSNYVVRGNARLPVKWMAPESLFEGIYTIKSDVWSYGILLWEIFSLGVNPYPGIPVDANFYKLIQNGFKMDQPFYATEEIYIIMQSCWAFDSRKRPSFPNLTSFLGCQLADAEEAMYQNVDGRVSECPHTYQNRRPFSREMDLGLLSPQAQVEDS

[2] = molecular target: T2, FLT3 (FMS-like tyrosine kinase 3) (Homo sapiens, UniProt P36888, D835H)
T2 construct: catalytic domain of FLT3 D835H
T2 sequence (P36888 564-993 D835H limits assumed): T1 sequence (P36888 564-993 limits assumed) with D272H

[3] = molecular target: T3, FLT3 (FMS-like tyrosine kinase 3) (Homo sapiens, UniProt P36888, D835Y)
T3 construct: catalytic domain of FLT3 D835Y
T3 sequence (P36888 564-993 D835Y limits assumed): T1 sequence (P36888 564-993 limits assumed) with D272Y

With `CCN(CC)CCNC(=O)c1c(C)[nH]c(/C=C2\C(=O)Nc3ccc(Cl)cc32)c1C` [SU11652] the IC50 [1] was ~1.5 nM, the IC50 [2] was 32 nM and the IC50 [3] was 16 nM.
